Reference: ChEMBL document CHEMBL5505970 (J Med Chem, 2024)
pIC50, pKi: −log10 of the molar value. Activity calls are given as the source filed them. No cut-off for these calls is given here.

How the values were obtained:
[1] = target: T1, Serine/threonine-protein kinase ATR (Homo sapiens, UniProt Q13535); assay: Inhibition of ATR in human HeLa S3 cells assessed as decrease in CHK1 phosphorylation at Ser345 residue pretreated for 20 mins followed by gemcitabine stimulation for 3.5 to 4 hrs by AlphaScreen SurFire assay; format: cell-based
T1 sequence (Q13535 whole entry): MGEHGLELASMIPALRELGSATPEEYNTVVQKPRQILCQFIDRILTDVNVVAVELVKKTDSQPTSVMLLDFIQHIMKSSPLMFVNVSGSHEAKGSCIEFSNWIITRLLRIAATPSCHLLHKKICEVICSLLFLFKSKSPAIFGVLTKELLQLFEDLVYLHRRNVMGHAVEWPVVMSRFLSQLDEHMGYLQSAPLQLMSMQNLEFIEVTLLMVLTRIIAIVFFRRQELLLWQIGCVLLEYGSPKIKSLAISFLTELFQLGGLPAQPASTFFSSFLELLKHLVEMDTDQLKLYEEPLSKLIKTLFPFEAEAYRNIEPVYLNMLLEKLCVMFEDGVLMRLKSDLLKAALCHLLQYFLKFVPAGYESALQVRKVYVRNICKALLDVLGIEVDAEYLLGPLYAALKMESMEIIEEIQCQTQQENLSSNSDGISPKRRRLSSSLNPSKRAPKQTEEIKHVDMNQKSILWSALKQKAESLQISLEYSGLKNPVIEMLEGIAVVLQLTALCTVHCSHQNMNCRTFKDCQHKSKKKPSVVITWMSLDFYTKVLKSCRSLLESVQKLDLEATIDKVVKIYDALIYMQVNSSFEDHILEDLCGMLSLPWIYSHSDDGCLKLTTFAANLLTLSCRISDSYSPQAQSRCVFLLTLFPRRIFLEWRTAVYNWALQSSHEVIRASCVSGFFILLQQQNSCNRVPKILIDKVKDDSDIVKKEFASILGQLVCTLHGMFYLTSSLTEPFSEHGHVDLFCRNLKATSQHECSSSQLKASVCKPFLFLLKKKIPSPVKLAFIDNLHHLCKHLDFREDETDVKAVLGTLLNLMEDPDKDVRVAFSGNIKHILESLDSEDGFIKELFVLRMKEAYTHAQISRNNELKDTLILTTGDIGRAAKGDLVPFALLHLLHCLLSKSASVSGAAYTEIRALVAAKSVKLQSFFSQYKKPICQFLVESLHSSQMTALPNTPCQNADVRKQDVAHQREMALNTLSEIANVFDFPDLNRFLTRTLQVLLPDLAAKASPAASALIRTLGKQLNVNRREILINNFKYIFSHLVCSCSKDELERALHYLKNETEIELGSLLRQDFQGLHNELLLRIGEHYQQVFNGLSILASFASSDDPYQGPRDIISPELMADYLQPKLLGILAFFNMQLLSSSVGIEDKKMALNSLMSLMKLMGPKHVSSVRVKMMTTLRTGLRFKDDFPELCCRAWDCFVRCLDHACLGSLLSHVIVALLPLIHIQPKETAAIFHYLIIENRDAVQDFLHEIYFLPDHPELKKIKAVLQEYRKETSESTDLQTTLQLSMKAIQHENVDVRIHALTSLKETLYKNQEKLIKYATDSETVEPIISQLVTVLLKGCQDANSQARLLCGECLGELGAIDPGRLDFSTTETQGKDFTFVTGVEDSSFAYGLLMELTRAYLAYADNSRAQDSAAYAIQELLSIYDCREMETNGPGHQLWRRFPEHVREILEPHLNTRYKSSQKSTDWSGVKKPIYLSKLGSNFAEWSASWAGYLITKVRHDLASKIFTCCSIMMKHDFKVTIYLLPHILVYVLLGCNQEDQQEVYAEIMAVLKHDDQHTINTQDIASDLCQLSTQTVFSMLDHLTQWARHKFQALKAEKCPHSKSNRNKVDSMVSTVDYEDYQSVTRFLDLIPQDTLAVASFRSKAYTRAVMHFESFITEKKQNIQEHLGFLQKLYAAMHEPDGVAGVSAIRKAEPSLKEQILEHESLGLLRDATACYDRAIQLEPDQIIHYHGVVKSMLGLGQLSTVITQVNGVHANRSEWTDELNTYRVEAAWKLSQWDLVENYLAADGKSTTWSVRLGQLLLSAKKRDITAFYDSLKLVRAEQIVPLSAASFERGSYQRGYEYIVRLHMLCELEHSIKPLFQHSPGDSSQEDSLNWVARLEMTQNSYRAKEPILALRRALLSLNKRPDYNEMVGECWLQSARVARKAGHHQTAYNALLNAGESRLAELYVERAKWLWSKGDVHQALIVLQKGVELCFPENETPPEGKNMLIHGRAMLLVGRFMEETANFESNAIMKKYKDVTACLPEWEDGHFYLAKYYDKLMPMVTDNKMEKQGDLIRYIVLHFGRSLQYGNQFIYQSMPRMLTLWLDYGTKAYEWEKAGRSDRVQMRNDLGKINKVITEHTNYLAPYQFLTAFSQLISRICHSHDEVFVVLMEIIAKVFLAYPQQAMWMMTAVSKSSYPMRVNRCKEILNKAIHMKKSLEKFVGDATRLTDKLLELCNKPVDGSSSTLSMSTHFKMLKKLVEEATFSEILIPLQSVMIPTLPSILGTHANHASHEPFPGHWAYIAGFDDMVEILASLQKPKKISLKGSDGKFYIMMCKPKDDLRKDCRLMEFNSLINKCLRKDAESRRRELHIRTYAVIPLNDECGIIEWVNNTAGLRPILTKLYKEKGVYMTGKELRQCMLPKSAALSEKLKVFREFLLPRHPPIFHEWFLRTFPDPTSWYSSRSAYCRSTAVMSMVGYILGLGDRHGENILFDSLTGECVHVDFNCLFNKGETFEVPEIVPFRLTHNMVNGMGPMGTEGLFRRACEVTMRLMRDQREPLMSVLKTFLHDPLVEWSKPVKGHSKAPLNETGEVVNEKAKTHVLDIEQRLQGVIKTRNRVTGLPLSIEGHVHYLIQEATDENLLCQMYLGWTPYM

[2] = Clearance in human hepatocytes at 1 uM measured per million cells by ESI/LC-MS/MS analysis; format: ADME, cell-based, Hepatocyte; conditions: read-out: CLH
[3] = Clearance in human liver microsomes at 1 uM in presence of NADPH by ESI/LC-MS/MS analysis; format: ADME, Microsome; conditions: read-out: CLH
Granta-519 = assay: Antitumor activity against human Granta-519 cells xenografted in NOD-SCID mouse assessed as decrease in tumor volume at 50 mg/kg, po bid for 3 days and measured at 4 days after drug treatment cessation; format: functional, organism-based; conditions: time 3.0 day
LoVo = assay: Cytotoxicity against human LoVo cells assessed as reduction in cell viability incubated for 5 days by CellTiter-Glo assay; format: functional, cell-based; conditions: 120 h
[4] = Toxicity in NOD-SCID mouse xenografted with human Granta-519 cells assessed as early stage erythroblasts at 30 mg/kg, po bid for 3 days and measured at 4 days after treatment discontinuation by flow cytometry; format: organism-based; conditions: in vivo, 72 h, time 3 day
[5] = Toxicity in NOD-SCID mouse xenografted with human Granta-519 cells assessed as late stage erythroblasts at 30 mg/kg, po bid for 3 days and measured at 4 days after treatment discontinuation by flow cytometry; format: organism-based; conditions: in vivo, 72 h, time 3 day
[6] = Toxicity in NOD-SCID mouse xenografted with human Granta-519 cells assessed as reduction in red blood cells at 50 mg/kg, po bid for 3 days and 4 days off treatment and measured on day 14; format: organism-based; conditions: in vivo, 72 h, time 3 day
[7] = Inhibition of human full length recombinant ATR M211T mutant using GST-c-Myc-p53 as substrate measured after 30 mins in presence of Mg/ATP mix by ELISA
Homo sapiens [8] = species on record: Homo sapiens; assay: Selectivity ratio of IC50 for inhibition of mTOR in human HeLa S3 cells to IC50 for inhibition of ATR in human HeLa S3 cells; format: cell-based; conditions: time 1.0 hrs
ATR/ATRIP = ATR/ATRIP (Homo sapiens, UniProt Q13535); assay: Inhibition of human ATR/ATRIP using GST-tagged p53 as substrate in presence of 3 uM ATP by AlphaScreen assay; format: protein-complex assay
ATR/ATRIP, sequence (Q13535 whole entry): as above
ATR/ATRIP, sequence (Q8WXE1 whole entry, further chain): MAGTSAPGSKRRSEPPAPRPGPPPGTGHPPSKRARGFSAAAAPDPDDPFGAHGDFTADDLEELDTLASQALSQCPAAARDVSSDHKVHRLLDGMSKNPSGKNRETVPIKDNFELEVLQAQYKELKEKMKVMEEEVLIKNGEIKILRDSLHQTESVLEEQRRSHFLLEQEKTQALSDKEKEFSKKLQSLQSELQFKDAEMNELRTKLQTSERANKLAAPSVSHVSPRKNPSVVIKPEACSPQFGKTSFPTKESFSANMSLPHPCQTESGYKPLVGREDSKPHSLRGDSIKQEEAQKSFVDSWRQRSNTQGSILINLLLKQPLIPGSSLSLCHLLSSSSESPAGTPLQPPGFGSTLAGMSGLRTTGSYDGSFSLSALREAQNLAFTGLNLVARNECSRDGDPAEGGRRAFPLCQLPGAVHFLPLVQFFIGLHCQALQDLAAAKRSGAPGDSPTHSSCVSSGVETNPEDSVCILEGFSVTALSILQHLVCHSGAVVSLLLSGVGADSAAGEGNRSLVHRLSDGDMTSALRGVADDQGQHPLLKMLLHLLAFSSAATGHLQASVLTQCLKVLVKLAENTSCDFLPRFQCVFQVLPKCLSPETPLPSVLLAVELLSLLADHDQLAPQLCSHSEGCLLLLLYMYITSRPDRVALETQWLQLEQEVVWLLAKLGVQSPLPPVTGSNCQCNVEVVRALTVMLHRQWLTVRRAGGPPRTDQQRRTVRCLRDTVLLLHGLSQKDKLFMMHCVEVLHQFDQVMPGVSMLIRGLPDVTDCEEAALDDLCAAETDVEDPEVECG

[9] = Clearance in Sprague-Dawley rat at 1 mg/kg, iv formulated as a solution in 10% PG:18% PEG400 in water or 5% NMP:95% (10% VitE TPGS in water) measured for 24 hrs by reverse phase liquid chromatography coupled to mass spectrometry; format: ADME, organism-based; conditions: in vivo
[10] = Oral bioavailability in Sprague-Dawley rat at 2.5 to 5 mg/kg formulated as a solution in 5% NMP:95% (10% VitE TPGS in water) measured for 24 hrs by reverse phase liquid chromatography coupled to mass spectrometry; format: ADME, organism-based; conditions: in vivo, dose 2.5-5 mg/kg
[11] = target: Serine/threonine-protein kinase mTOR (Homo sapiens, UniProt P42345); assay: Inhibition of human full length recombinant mTOR measured after 40 mins in presence of [gamma-33P]ATP by radiometric scintillation counting analysis
[12] = target: DNA-dependent protein kinase catalytic subunit (Homo sapiens, UniProt P78527); assay: Inhibition of human full length recombinant DNA-PK using GST-c-Myc-p53 as substrate measured after 30 mins in presence of Mg/ATP mix by ELISA
[13] = target: Serine-protein kinase ATM (Homo sapiens, UniProt Q13315); assay: Inhibition of human full length recombinant ATM using GST-c-Myc-p53 as substrate measured after 30 mins in presence of Mg/ATP mix by ELISA
[14] = target: Glycogen synthase kinase-3 beta (Homo sapiens) (UniProt P49841); assay: Inhibition of GSK3B in human Jurkat cell lysates at 0.03 to 0.3 uM in presence of biotinylated ADP by KiNativ profiling based mass spectrometry; format: subcellular; conditions: dose 0.03-0.3 µM
Glycogen synthase kinase-3 beta (Homo sapiens), sequence (P49841 whole entry, looked up): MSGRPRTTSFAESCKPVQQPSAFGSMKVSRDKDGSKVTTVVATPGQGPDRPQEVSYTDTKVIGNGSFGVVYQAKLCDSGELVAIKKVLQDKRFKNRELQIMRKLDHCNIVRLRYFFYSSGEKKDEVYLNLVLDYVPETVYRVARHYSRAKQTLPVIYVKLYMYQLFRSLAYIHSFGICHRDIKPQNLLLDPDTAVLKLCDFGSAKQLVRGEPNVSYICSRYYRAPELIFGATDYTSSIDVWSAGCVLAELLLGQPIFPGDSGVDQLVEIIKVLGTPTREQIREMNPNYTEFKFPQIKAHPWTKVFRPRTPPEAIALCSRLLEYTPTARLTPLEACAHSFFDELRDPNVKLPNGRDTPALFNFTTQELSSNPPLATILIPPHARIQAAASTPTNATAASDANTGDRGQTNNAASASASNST

[15] = target: Dual specificity tyrosine-phosphorylation-regulated kinase 1A (Homo sapiens) (UniProt Q13627); assay: Inhibition of DYRK1A in human Jurkat cell lysates at 0.03 to 0.3 uM in presence of biotinylated ADP by KiNativ profiling based mass spectrometry; format: subcellular; conditions: dose 0.03-0.3 µM
[16] = target: Glycogen synthase kinase-3 alpha (Homo sapiens) (UniProt P49840); assay: Inhibition of GSK3A in human Jurkat cell lysates at 0.03 to 0.3 uM in presence of biotinylated ADP by KiNativ profiling based mass spectrometry; format: subcellular; conditions: dose 0.03-0.3 µM
Glycogen synthase kinase-3 alpha (Homo sapiens), sequence (P49840 2-483 limits assumed): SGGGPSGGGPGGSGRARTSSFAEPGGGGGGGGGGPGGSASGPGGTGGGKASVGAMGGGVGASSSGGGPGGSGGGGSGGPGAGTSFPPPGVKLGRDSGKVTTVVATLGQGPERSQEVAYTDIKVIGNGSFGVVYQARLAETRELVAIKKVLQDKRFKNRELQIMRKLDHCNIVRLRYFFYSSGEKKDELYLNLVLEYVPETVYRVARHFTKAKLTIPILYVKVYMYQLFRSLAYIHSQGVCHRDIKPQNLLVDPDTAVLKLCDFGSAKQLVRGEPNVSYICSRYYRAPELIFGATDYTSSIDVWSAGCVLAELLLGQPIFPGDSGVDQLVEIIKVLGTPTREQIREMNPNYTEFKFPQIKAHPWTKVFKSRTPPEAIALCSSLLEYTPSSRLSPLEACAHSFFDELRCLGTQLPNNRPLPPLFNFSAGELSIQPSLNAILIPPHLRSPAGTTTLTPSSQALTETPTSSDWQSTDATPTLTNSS

Homo sapiens [17] = species on record: Homo sapiens; assay: Selectivity ratio of IC50 for inhibition of mTOR in human LoVo cells using pP70S6K (Thr389) as substrate to IC50 for inhibition of ATR in gemcitabine-stimulated human LoVo cells using CHK1 (Ser345) as substrate; format: cell-based
[18] = target: T1, Serine/threonine-protein kinase ATR; assay: Inhibition of ATR in gemcitabine-stimulated human LoVo cells assessed as decrease in CHK1 phosphorylation at Ser345 residue; format: cell-based
[19] = target: T1, Serine/threonine-protein kinase ATR; assay: Inhibition of ATR (unknown origin) by Morrison equation based analysis
[20] = Apparent permeability of the compound in human Caco-2 cells at 10 uM measured for 90 mins by LC-MS/MS analysis; format: ADME, cell-based
[21] = Efflux ratio of apparent permeability in human Caco-2 cells at 10 uM measured for 90 mins by LC-MS/MS analysis; format: ADME, cell-based

SMILES: C[C@@H]1COCCN1c1cc(C(C)(C)O)c2cnn(-c3cc[nH]n3)c2n1
- pIC50 [1]: 7.68

SMILES: C[C@@H]1COCCN1c1cc(C2(S(C)(=O)=O)CC2)c2ccn(-c3cc[nH]n3)c2n1
- hepatocyte CLint at 1 µM [2]: < 2.9 µL/min/1e6 cells
- microsomal CLint at 1 µM [3]: < 11.8 µL/min/mg

SMILES: C[C@@H]1COCCN1c1cc(-c2ccnn2C)c2ccnc(-c3ccn[nH]3)c2n1 [ELIMUSERTIB]
- Activity (Granta-519): Active
- pIC50 (LoVo): 7.57
- Activity [4]: Non-Toxic
- Activity [5]: Non-Toxic
- Activity [6]: Toxic

SMILES: C[C@@H]1COCCN1c1cc(C2([S@](C)(=N)=O)CC2)nc(-c2cc[nH]c3nccc2-3)n1 [CERALASERTIB]
- pIC50 [7]: 6.87
- pIC50 (LoVo): 6.42

SMILES: C[C@@H]1COCCN1c1cc(I)c2cnn(-c3cc[nH]n3)c2n1
- Ratio IC50 (Homo sapiens [8]): 1.6

SMILES: Cc1c[nH]nc1Nc1nc(N2CCOC[C@H]2C)cc(C2(S(C)(=O)=O)CC2)n1
- pIC50 [1]: < 5.00
- pIC50 (ATR/ATRIP): < 6.00

SMILES: C[C@@H]1COCCN1c1cc(C2(O)CCC(F)(F)CC2)c2cnn(-c3cc[nH]n3)c2n1
- microsomal CLint at 1 µM [3]: < 11.6 µL/min/mg

SMILES: C[C@@H]1COCCN1c1cc(-c2ccccc2C(N)=O)c2cnn(-c3ccn[nH]3)c2n1
- clearance [9]: 45 mL/min/kg
- bioavailability [10]: 2%
- microsomal CLint at 1 µM [3]: < 11.6 µL/min/mg

SMILES: C[C@@H]1COCCN1c1cc(C2(S(C)(=O)=O)CC2)nc(-c2cccc3[nH]ccc23)n1
- pIC50 [7]: 8.00

SMILES: C[C@@H]1COCCN1c1cc(C(C)(C)C(N)=O)c2cnn(-c3cc[nH]n3)c2n1
- pIC50 [1]: 8.05

SMILES: CNCc1ccc(-c2cc(-c3nc(-c4ccc(S(=O)(=O)C(C)C)cc4)cnc3N)on2)cc1 [BERZOSERTIB]
- pIC50 [7]: 8.30
- pIC50 [11]: 5.32
- pIC50 [12]: 5.44
- pIC50 [13]: 7.07

SMILES: Nc1nn2cc(F)cnc2c1C(=O)Nc1cncc(F)c1N1CCC(C(=O)N2CCN(C3COC3)CC2)CC1 [M4344]
- inhibition [14]: Active
- inhibition [15]: Active
- inhibition [16]: Active
- Ratio IC50 (Homo sapiens [17]): 63
- pIC50 [18]: 8.96
- Ratio IC50 (Homo sapiens [8]): 27
- pIC50 [1]: 8.30
- pKi [19]: 8.54
- pIC50 (ATR/ATRIP): 6.80

SMILES: C[C@@H]1COCCN1c1cc(C2(S(C)(=O)=O)CC2)nc(S(=O)(=O)c2cc[nH]n2)n1
- pIC50 [1]: < 5.00
- pIC50 (ATR/ATRIP): 6.80

SMILES: C[C@@H]1COCCN1c1cc(C2(S(C)(=O)=O)CC2)nc(Nc2cn[nH]c2)n1
- pIC50 [1]: < 5.00

SMILES: C[C@@H]1COCCN1c1cc(C2(S(C)(=O)=O)CC2)nc(Cc2cc[nH]n2)n1
- pIC50 [1]: < 5.00
- pIC50 (ATR/ATRIP): < 6.15

SMILES: Cc1cc2c(C3(S(C)(=O)=O)CC3)cc(N3CCOC[C@H]3C)nc2n1-c1cc[nH]n1
- pIC50 (ATR/ATRIP): < 6.00

SMILES: C[C@@H]1COCCN1c1cc(I)c2cnn(-c3ccn[nH]3)c2n1
- microsomal CLint at 1 µM [3]: 23 µL/min/mg
- pIC50 [1]: 8.15

SMILES: C[C@@H]1COCCN1c1ccc2cnn(-c3cc[nH]n3)c2n1
- Ratio IC50 (Homo sapiens [8]): 4
- pIC50 [1]: 7.22

SMILES: C[C@@H]1COCCN1c1cc(C2(S(C)(=O)=O)CC2)nc(N(C)c2cc[nH]n2)n1
- pIC50 (ATR/ATRIP): < 6.00

SMILES: C[C@@H]1COCCN1c1cc(C(C)(C)C#N)c2cnn(-c3cc[nH]n3)c2n1
- Papp at […], 10 µM [20]: 17 ×10⁻⁶ cm/s
- clearance [9]: 15 mL/min/kg
- bioavailability [10]: 56%
- microsomal CLint at 1 µM [3]: < 11.6 µL/min/mg
- efflux ratio at […], 10 µM [21]: 0.9
- Ratio IC50 (Homo sapiens [8]): 6.6
- pIC50 [1]: 9.10
